In patent publication US8288390B2, “Benzofuran derivatives” (Takeda Pharmaceutical Company Limited, priority 2009, dated 2012):

What was measured:
[1] = tested on: Tg2576 transgenic mice; experiment: Amelioration of cognitive function in novel object recognition test; assay type: in vivo, mouse; details: female Tg2576 mice, 10 mg/kg/day orally once a day for 3 weeks; retention 24 hours after training; recovery ratio vs vehicle Tg2576 and wild type
Protocol: Female Tg2576 transgenic mice and wild-type littermates were used at 8-9 months old. All animals were housed in room maintained at 24±1° C. with a 12-h light/dark cycle. Lights on 7:00 a.m. Food chows (Oriental Yeast Co. Tokyo, Japan) and tap water were provided ad libitum.
The compounds (10 mg/kg/day) or vehicle (0.5% methylcellulose, Wako Pure Chemical Industries Limited, Osaka, Japan) was orally administered to the mice once a day for 3 weeks. After the gavages, the novel object recognition test was performed. The test procedure consisted of three sessions: habituation, training, and retention. In the training and retention sessions, observer was not informed of the group name or animal number (blind method). 4-5 mice were habituated to the box (30×30×30 high cm), with 30 minutes of exploration in the absence of objects (habituation session). During the training session, two objects were placed in the back corner of the box. A mouse was then placed at another corner of the box and the total time spent exploring the two objects was recorded for 5 minutes. During the retention session, animals were placed back into the same box 24 hours after the training session, in which one of the familiar objects used during training was replaced with a novel object. The animals were then allowed to explore freely for 5 minutes and the time spent exploring each object was recorded. Throughout the experiments, the objects were used in a counterbalanced manner in terms of an environmental effect, their physical complexity and emotional neutrality. A preference index (PI), a ratio of the amount of time spent exploring the novel object over the total time spent exploring both objects, was used to measure cognitive function. Furthermore, recovery ratio was calculated by following formula; [Recovery ratio]=[[PI of Tg2576 mice treated by each compound]−[PI of Tg2576 mice treated by vehicle]]/[[PI of wild type mice]−[PI of Tg2576 mice treated by vehicle]].×100(%)

[2] = tested on: rat mixed glial culture; experiment: Activity of promoting neuronal neogenesis in rat mixed glial culture; assay type: cell-based; details: Rattus norvegicus, 72 h, compound 1 μM + rhIGF-1 100 ng/ml, 3 days culture; absorbance at 450 nm (class III beta-tubulin antibody); control rhIGF-1 only = 100%; read-out: Increase Ratio of the Absorbance (% control)
Protocol: From a three-day old SD rat, hippocampus and cerebral cortex were removed. By using a kit of dispersion liquid for neuronal cells (MB-X9901, manufactured by SUMITOMO BAKELITE CO., LTD.), cell suspension was prepared and then seeded on a 96-well plate coated with collagen Type I (4860-010, manufactured by Asahi Techno Glass Co., Ltd.) to 10^5 cells/well. Under the condition of 37° C. and 5% CO2, the cells were cultured for four days in a growth medium (D-MEM/F12 with 10% FBS, comprising PS).
After culturing, the medium was exchanged with a medium for differentiation (D-MEM/F12, comprising PS), added with rhIGF-1 (R&D Systems, 291-G1-250, final concentration of 100 ng/ml) and the compound to 1 μM, followed by further culture for three days. Cultured cells were fixed with 4% paraformaldehyde-PBS (manufactured by MUTO PURE CHEMICALS CO., LTD.) and subjected to membrane penetration using 0.1% Triton X-100 PBS, followed by blocking with Block Ace solution (UK-B80, manufactured by Dainippon Sumitomo Pharma Co., Ltd.). As a primary antibody, Anti-neuron-specific class III beta-tubulin antibody (R&D Systems, MAB1195, clone Tuj-1) was used after 1000× dilution. As a secondary antibody, Anti-Mouse Ig, HRP-Linked F (ab′) 2 Fragment Sheep (Amersham Biosciences, NA9310) was used after 10000× dilution. For washing process, the plate washer (BIO-TEK INSTRUMENTS ELX405) was used. For a chromogenic reaction, the reaction was carried out for 10 minutes using TMB Microwell Peroxidase Substrate System (Kirkegaard & Perry Laboratories, 50-76-00), followed by terminating the reaction according to the addition of 1M phosphoric acid. By using the plate reader (Labsystems Multiskan BICHROMATIC), absorbance at 450 nm was measured.
The absorbance for the case in which no compound is added (i.e., control, rhIGF-1 only) was 100%, and the increase ratio of the absorbance for the compound addition (i.e., compound+rhIGF-1) compared to the control was obtained as % control. Activity of the each compound for promoting neuronal differentiation that is measured according to the above method is summarized in Table 9 and Table 10.

[3] = tested on: Akt protein; experiment: Activity of inhibiting Akt protein degradation in rat mixed glial culture; assay type: cell-based; details: compound 1 μM + rhIGF-1 100 ng/ml, 10 minutes at 37° C.; Akt calibrated with ERK; no addition = 100%, rhIGF-1 only = 0%
Protocol: The mixed glial cells used in the Test example 1 were seeded on a 6-well plate coated with collagen Type I (manufactured by Asahi Techno Glass Co., Ltd.) to 4×10^6 cells/well. Under the condition of 37° C. and 5% CO2, the cells were cultured for four days in a growth medium (D-MEM/F12 with 10% FBS, comprising PS). After that, the medium was exchanged with a serum-free medium (D-MEM/F12, comprising PS) and the cells were subjected to starvation for 4 hours under the condition of 37° C. and 5% CO2.
Next, rhIGF-1 (R&D Systems, 291-G1-250, final concentration 100 ng/ml) and the compound were added to obtain 1 μM and reacted in a water bath incubator at 37° C. for 10 minutes. Culture supernatant was aspirated off, 150 μL of RIPA (50 mM Tris-HCl pH7.5, 5 mM EDTA, 100 mM NaCl, 30 mM NaF, 5 mM sodium diphosphate, 137 mg/l pepstatin A, 2.5 KIU/l aprotinin, 1% NP-40, 6 mM sodium deoxycholate, 1 μM microcystinLR, 1 μM Z-Leu-Leu-Nva-H(aldehyde), 48 μM leupeptin, 96 μM 4-(2-aminoethyl)benzenesulfonyl fluoride-HCl, 1 mM sodium orthovanadate) was added thereto, and the reaction was terminated. After the termination of the reaction, the cell lysate was recovered by using a cell scraper on ice. Finally, the cell lysate was centrifuged for 30 minutes at 15000 rpm and the supernatant was taken as a cell extract.
Proteins were recovered from the cell extract by using trichloroacetic acid, and quantified according to Lowry method. Standard curve was established with bovine serum albumin. Based on the measured values, each cell extract was diluted with RIPA to prepare it in constant concentration (10 μg/lane). SDS-PAGE was carried out under reducing condition using 10% acrylamide (45 mA, 1.5 hours). After transferring to a PVDF membrane (0.13 A, 1 hour), reaction with an antibody was carried out. As a primary antibody, Akt (Cell Signaling, 9272) and ERK (Santa Cruz, sc-94) were used with the dilution ratio of 1000. As a secondary antibody, HRP-labeled anti-rabbit antibody (NA9340V, manufactured by Amersham) was used with the dilution ratio of 12500. Then, using ImmunoStar reagent (291-55203, manufactured by Wako Pure Chemical Industries, Ltd.), X-ray film detection was carried out. Quantification of the results was carried out by using GS-800 Calibrated Densitometer (manufactured by BioRad), and then the band strength was converted into the numerals by multiplying the absorbance originating from bands of Akt and ERK-1&2 by the area. Akt was calibrated with ERK to give the numeral values.
Inhibitory activity on Akt degradation was expressed as inhibition ratio. Specifically, the case in which neither the compound nor rhIGF-1 was added (no addition) is 100% and the case in which only rhIGF-1 was added is 0%, and then with the value measured from compound+rhIGF-1, the inhibition ratio was obtained. Inhibition ratio(%)=[(compound+rhIGF-1)−(rhIGF-1)]÷[(no addition)−(rhIGF-1)]×100

SMILES: COc1ccc(N2CCN(c3c(C)c(C)c4c(c3C)CC(C)(C)O4)CC2)cc1 [Example 17, 1-(4-Methoxyphenyl)-4-(2,2,4,6,7-pentamethyl-2,3-dihydro-1-benzofuran-5-yl)piperazine]
- Preference index (% recovery) [1]: 70.9 % recovery
- activity at 1 µM [2]: 216%
- Inhibition of Akt degradation (%) [3]: 73.3%

SMILES: COc1ccc(N2CCN(c3c(C)c(C)c4c(c3C)C[C@H](C)O4)CC2)cc1 [Example 22, 1-(4-Methoxyphenyl)-4-[(2S)-2,4,6,7-tetramethyl-2,3-dihydro-1-benzofuran-5-yl]piperazine]
- Preference index (% recovery) [1]: 76.9 % recovery
- activity at 1 µM [2]: 389%
- Inhibition of Akt degradation (%) [3]: 73.9%

SMILES: COc1ccc(N2CCN(c3c(C)c4c(c(OC)c3C)OC(C)(C)C4)CC2)cc1 [Example 47, 1-(4-Methoxyphenyl)-4-(7-methoxy-2,2,4,6-tetramethyl-2,3-dihydro-1-benzofuran-5-yl)piperazine]
- Preference index (% recovery) [1]: 82.2 % recovery
- activity at 1 µM [2]: > 500%
- Inhibition of Akt degradation (%) [3]: 55.2%

SMILES: Cc1c(C)c(N2CCN(c3ccnc(Cl)n3)CC2)c(C)c2c1OC(C)(C)C2 [Example 82, 2-Chloro-4-[4-(2,2,4,6,7-pentamethyl-2,3-dihydro-1-benzofuran-5-yl)piperazin-1-yl]pyrimidine]
- melting point: 192 to 193 °C
